Assay results: PubChem BioAssay (NCI)
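Dose response: 5 concentrations. Exposure: 48 h. Format: 96-well plates. Endpoint: linear interpolation; highest concentration if not reached. GI50 = concentration required for 50% inhibition of growth. TGI is the concentration that stops growth completely.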

Legend:
Test in all cases: NCI-60 cell line screen, 48 h
[1] = test system: CCRF-CEM leukemia
[2] = test system: HOP-92 NSCLC
[3] = test system: SF-539 CNS
[4] = test system: OVCAR-8 ovarian
[5] = test system: HCT-116 colon
[6] = test system: OVCAR-3 ovarian
[7] = test system: ACHN renal
[8] = test system: KM12 colon
[9] = test system: HCT-15 colon
[10] = test system: OVCAR-4 ovarian

Structure (SMILES) | GI50 [1] [µM] | TGI [1] [µM] | GI50 [2] [µM] | TGI [2] [µM] | GI50 [3] [µM] | TGI [3] [µM] | GI50 [4] [µM] | TGI [4] [µM] | GI50 [5] [µM] | TGI [5] [µM] | GI50 [6] [µM] | TGI [6] [µM] | GI50 [7] [µM] | TGI [7] [µM] | GI50 [8] [µM] | TGI [8] [µM] | GI50 [9] [µM] | TGI [9] [µM] | GI50 [10] [µM] | TGI [10] [µM]
COc1cnc2c(c1)C(=O)c1c-2n(CCCN2CCC(O)CC2)c(=O)c2cc(F)ccc12 | 0.0797 | 1.95 | 0.31 | 3.22 | 0.295 | 1.14 | 0.173 | 1.16 | 0.0895 | 0.591 | 0.254 | 1.18 | 0.0902 | 0.332 |  |  |  |  |  | 
CN1CCN(Cc2ccc(NC(=O)c3cncc(C#Cc4cncc5ncccc45)c3)cc2C(F)(F)F)CC1 | 3.27 | 34.8 | 1.16 | 4.92 | 0.829 | 2.96 | 4.53 | 18.3 | 1.26 | 11.5 | 6.32 | 19.2 | 1.36 | 10.5 | 0.0444 | 11.7 | 3.9 | 14.7 |  | 
Cc1cc(C2=NNC(=O)Cc3cc4c(cc32)OCCO4)cc(C)c1N |  |  | 3.54 | > 100 | 2.73 | 8.91 | 4.08 | > 100 | 2.35 | > 100 | 0.892 | 5.6 | 6.48 | > 100 | 0.818 | > 100 | 1.25 | > 100 | 6.4 | > 100
C=C(C)C1CC2(C)C(C)CC(OC(=O)/C(C)=C\C)CC2C(OC(=O)/C(C)=C\C)C1O (configuration not stated) |  | 45.8 |  | > 100 |  | > 100 |  | > 100 |  | > 100 |  |  |  | > 100 |  | > 100 |  | > 100 |  | > 100
CCOC(=O)C1=C(C)NC2SC(=O)/C(=C\c3ccccc3O)N2C1c1ccccc1 (configuration not stated) | 10.2 | 75.2 | 20.8 | 43.2 | 35.5 | > 100 | 24.6 | 61.6 | 23.6 | 63.6 | 20.4 | 49.9 | 28.5 | 81.4 | 16.6 | 43.5 | 30.5 | > 100 |  | 
CN[C@@H](C)[C@@H](N)c1ccccc1 |  | > 100 |  | > 100 |  | > 100 |  | > 100 |  | > 100 |  | > 100 |  | > 100 |  |  |  | > 100 |  | 
OCC1OC(OCC(O)C(O)C(O)C(/C=N/Nc2ccccc2)=N/Nc2ccccc2)C(O)C(O)C1O (configuration not stated) |  | > 100 |  | > 100 |  | > 100 |  | > 100 |  | > 100 |  | > 100 |  | > 100 |  | > 100 |  | > 100 |  | 
C[C@@H]1CC[C@@H]2[C@@H]1[C@H](OC(=O)/C=C/c1ccccc1)[C@]1(C3CCCCC3)C[C@@H](NC(=O)CO)[C@@]2(C)O1 | 23.2 | 45.2 |  |  | 16.7 | 31.4 | 16.3 | 32 | 19.5 | 34.2 | 17.3 | 34.2 | 3.51 | 13.1 | 16.3 | 32 | 15.8 | 33.2 | 16 | 35.4
